Consider one compound from ChEMBL document CHEMBL3045613, “Effects of sublethal glyphosate rates on fresh market tomato” (Crop Prot, 2007).

Holding throughout (type): organism-based
What all share (design): scale not given: the % may be the effect or the level left

Data set [1] relates to Solanum lycopersicum. Kind of data set: Phytotoxicity against Solanum lycopersicum (tomato) plant assessed as decrease in vigour at 25 mg/L applied 1 days prior to transplantation for 10 secs measured after 2 weeks relative to untreated-control. Particulars: in vivo.
In data set [2] the test system is Solanum lycopersicum. The experiment in a line: Phytotoxicity against Solanum lycopersicum (tomato) plant assessed as decrease in vigour at 100 mg/L applied 1 days prior to transplantation for 10 secs measured after 2 weeks relative to untreated-control. The conditions noted are these: in vivo.
Data set [3] has as its system Solanum lycopersicum. Kind of data set: Phytotoxicity against Solanum lycopersicum (tomato) plant assessed as decrease in vigour at 50 mg/L applied 1 days prior to transplantation for 10 secs measured after 4 weeks relative to untreated-control. Particulars: in vivo.
Data set [4] has as its system Solanum lycopersicum. The experiment in a line: Phytotoxicity against Solanum lycopersicum (tomato) plant assessed as decrease in plant height at 200 mg/L applied 1 days prior to transplantation for 10 secs measured after 4 weeks relative to untreated-control. Particulars: in vivo.
In data set [5] the test system is Solanum lycopersicum. Kind of data set: Phytotoxicity against Solanum lycopersicum (tomato) plant assessed as decrease in marketable yeild at 25 mg/L applied 1 days prior to transplantation for 10 secs measured after 4 weeks relative to untreated-control. Particulars: in vivo.
The test system of data set [6] is Solanum lycopersicum. Kind of data set: Phytotoxicity against Solanum lycopersicum (tomato) plant assessed as decrease in vigour at 150 to 200 mg/L applied 1 days prior to transplantation for 10 secs measured after 4 weeks relative to untreated-control. Particulars: in vivo.
Data set [7] has as its system Solanum lycopersicum. Kind of data set: Phytotoxicity against Solanum lycopersicum (tomato) plant assessed as decrease in marketable yeild at 150 mg/L applied 1 days prior to transplantation for 10 secs measured after 4 weeks relative to untreated-control. The conditions noted are these: in vivo.
The subject of data set [8] is Solanum lycopersicum. Kind of data set: Phytotoxicity against Solanum lycopersicum (tomato) plant assessed as decrease in plant height at 100 mg/L applied 1 days prior to transplantation for 10 secs measured after 4 weeks relative to untreated-control. The conditions noted are these: in vivo.
The subject of data set [9] is Solanum lycopersicum. Kind of data set: Phytotoxicity against Solanum lycopersicum (tomato) plant assessed as decrease in plant height at 150 mg/L applied 1 days prior to transplantation for 10 secs measured after 4 weeks relative to untreated-control. Particulars: in vivo, other.
Data set [10] has as its system Solanum lycopersicum. The experiment in a line: Phytotoxicity against Solanum lycopersicum (tomato) plant assessed as decrease in vigour at 100 mg/L applied 1 days prior to transplantation for 10 secs measured after 4 weeks relative to untreated-control. Particulars: in vivo.
In data set [11] the test system is Solanum lycopersicum. Kind of data set: Phytotoxicity against Solanum lycopersicum (tomato) plant assessed as decrease in plant height at 25 mg/L applied 1 days prior to transplantation for 10 secs measured after 4 weeks relative to untreated-control. The conditions noted are these: in vivo.
Data set [12] deals with Solanum lycopersicum. The experiment in a line: Phytotoxicity against Solanum lycopersicum (tomato) plant assessed as decrease in vigour at 25 mg/L applied 1 days prior to transplantation for 10 secs measured after 4 weeks relative to untreated-control. Particulars: in vivo.

Consider `O=C(O)CNCP(=O)(O)O` [GLYPHOSATE], for which the Activity in the data set on Solanum lycopersicum [1] was 78%; in the data set on Solanum lycopersicum [2] it was “<= 50%”; with Solanum lycopersicum [3], 36%; in the data set on Solanum lycopersicum [4], 75%; in the data set with Solanum lycopersicum [5], 41%; in the data set on Solanum lycopersicum [6], “<= 15%”. Moreover, the Activity with Solanum lycopersicum [7] is recorded as > 98%; in the data set with Solanum lycopersicum [8], 65%; in the data set with Solanum lycopersicum [9], 72%; in the data set on Solanum lycopersicum [10], 58%; in the data set on Solanum lycopersicum [11], 29%; with Solanum lycopersicum [12], 36%.
